Laboratory results taken from patent US8158589B2, “Peptides with the capacity to bind to transforming growth factor β1 (TGF-β1)” (Proyecto Biomedicine Cima, S.L., priority 2003, dated 2012).
Ends that are not written are not given here.

Target: T1, TGF-β1 (Mus musculus, UniProt P04202)
T1 construct: from tissue; host or cells: liver of Balb/C mice (CCl4 model); lung of C57BL/6 mice (bleomycin model)
Assay: Bleomycin-induced pulmonary fibrosis, therapeutic treatment started ten days after bleomycin
Assay type: in vivo, mice
Protocol: Female C57BL/6 mice (6-8 weeks of age) were obtained from Harlan SL (Barcelona, Spain) and maintained in accordance with the ethical committee of Universidad de Navarra (Spain) for the experimental use of animals. Lung injury was induced with 0.08 units/mouse of bleomycin sulfate (Sigma, Spain) diluted in 200 μl of phosphate buffered saline (PBS). Briefly, the suspension of bleomycin was instilled by pippeting into the nose of mice previously anesthetized with 2% isoflurane vapor. PBS was instilled in mice as a negative control for pulmonary fibrosis (PF), following the same procedures. Peptide treatment was started two days after bleomycin challenge and it was administered intraperitoneally in 500 μl of PBS on alternate days. Mice received high (75 μg/mouse) or low (25 μg/mouse) doses of P17, or the high dose (75 μg/mouse) of control peptide P301. Lungs were obtained 15 or 26 days after bleomycin administration to evaluate profibrogenic gene expression or histological damage, respectively. To study the therapeutic effect of P17 in the development of fibrosis, it was administered daily ten days after bleomycin challenge, once fibrosis was established. […]
Lungs were fixed by inflation with 4% paraformaldehyde overnight and dehydrated in 70% ethanol. […] Percentage of fibrosis in the lung was evaluated by light microscopy by three different qualified persons using a blinded system.

T1 sequence (P04202 279-390 limits assumed): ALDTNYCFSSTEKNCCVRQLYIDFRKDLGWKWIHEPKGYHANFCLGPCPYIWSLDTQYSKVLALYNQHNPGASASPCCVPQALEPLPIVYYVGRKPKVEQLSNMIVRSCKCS

KRIWFIPRSSWYERA [SEQ ID NO: 17, KRIWFIPRSSWYERA]
lung fibrosis (Masson's Trichrome), established fibrosis (25 μg/mouse daily from day 10, day 26): No beneficial effect
lung fibrosis (Masson's Trichrome), established fibrosis (75 μg/mouse daily from day 10, day 26, vs untreated mice): significant attenuation of fibrosis
